Literature values in paper PMC7904743, “WIDOCK: a reactive docking protocol for virtual screening of covalent inhibitors” (Journal of Computer-Aided Molecular Design, 2021).
Read-outs that look alike come from different tables or passages of the source.

Assays:
NUDT7 = details: protein labeling at 200 μM; experimental actives if % labeling higher than 50%; cited from earlier work
OTUB2 = details: experimental actives if % labeling higher than 50%; cited from earlier work
[1] = thiol reactivity, cited from earlier work
[2] = natural log of average rate constant k
[3] = natural logarithm of average rate constant

SMILES	NUDT7 % labeling (NUDT7)	OTUB2 % labeling (OTUB2)	ln(avg k) [1, 2]	ln(avg k) [1, 3]
CNC(=O)NC(=O)CCl [PCM-0102534, CNC(=O)NC(=O)CCl]	0%	0%	-16.522	-16.522
CC(=O)N1CCN(C(=O)CCl)CC1 [PCM-0102535, CC(=O)N1CCN(C(=O)CCl)CC1]	6%	0%	-15.085	-15.085
CC(C)(C)c1cc(NC(=O)CCl)n(-c2ccccc2)n1 [PCM-0102536, CC(C)(C)c1cc(NC(=O)CCl)n(-c2ccccc2)n1]	0%	14%	-15.955	-15.955
O=C(CCl)NCc1ccccc1 [PCM-0102538, O=C(CCl)NCc1ccccc1]	0%	28%	-16.796	-16.796
Cc1ccc(N(C(=O)CCl)C2C=CS(=O)(=O)C2)cc1 (stereo not shown) [PCM-0102539, Cc1ccc(N(C(=O)CCl)C2C=CS(=O)(=O)C2)cc1]	33%	16%	-15.258	-15.258
O=C(CCl)Nc1cc([N+](=O)[O-])ccc1F [PCM-0102544, O=C(CCl)Nc1cc([N+](=O)[O-])ccc1F]	0%	31%	-15.793	-15.793
COC(=O)c1cc(NC(=O)CCl)cn1C [PCM-0102545, COC(=O)c1cc(NC(=O)CCl)cn1C]	0%	33%	-15.579	-15.579
CC1(C)C(=O)Nc2ccccc2N1C(=O)CCl [PCM-0102546, CC1(C)C(=O)Nc2ccccc2N1C(=O)CCl]	18%	32%	-15.068	-15.068
O=C(CCl)N=c1sccn1Cc1ccccc1Cl [PCM-0102550, O=C(CCl)N=c1sccn1Cc1ccccc1Cl]	11%	0%	-15.426	-15.426
Cc1ccc(CN(C)C(=O)CCl)c(C)c1 [PCM-0102552, Cc1ccc(CN(C)C(=O)CCl)c(C)c1]	19%	0%	-16.104	-16.104
CC(C)(O)CNC(=O)CCl [PCM-0102554, CC(C)(O)CNC(=O)CCl]	0%	0%	-16.972	-16.972
CC(c1ccc(Cl)cc1)N(C)C(=O)CCl (stereo not shown) [PCM-0102556, CC(c1ccc(Cl)cc1)N(C)C(=O)CCl]	39%	0%	-15.842	-15.842
COc1ccc(C2CCCCCN2C(=O)CCl)cc1 (stereo not shown) [PCM-0102558, COc1ccc(C2CCCCCN2C(=O)CCl)cc1]	100%	0%	-16.020	-16.020
CC(NC(=O)CCl)C1CC2CCC1C2 (stereo not shown) [PCM-0102572, CC(NC(=O)CCl)C1CC2CCC1C2]	0%	0%	-17.138	-17.138
O=C(NC1CCN(C(=O)CCl)CC1)c1ccccc1 [PCM-0102575, O=C(NC1CCN(C(=O)CCl)CC1)c1ccccc1]	9%	9%	-15.398	-15.398
Cc1ccc(NC(=O)CCl)cc1I [PCM-0102577, Cc1ccc(NC(=O)CCl)cc1I]	34%	80%	-15.945	-15.945
O=C(CCl)NCc1ccc2c(c1)OCO2 [PCM-0102578, O=C(CCl)NCc1ccc2c(c1)OCO2]	0%	16%	-16.736	-16.736
Cc1cccc(N(C(=O)CCl)C2C=CS(=O)(=O)C2)c1 (stereo not shown) [PCM-0102579, Cc1cccc(N(C(=O)CCl)C2C=CS(=O)(=O)C2)c1]	40%	0%	-15.240	-15.240
N#Cc1c(NC(=O)CCl)sc2c1CCCC2 [PCM-0102580, N#Cc1c(NC(=O)CCl)sc2c1CCCC2]	72%	10%	-16.105	-16.105
O=C(CCl)Nc1ccc(N2CCOCC2)cc1 [PCM-0102582, O=C(CCl)Nc1ccc(N2CCOCC2)cc1]	0%	54%	-15.715	-15.715
NC(=O)C1CCN(C(=O)CCl)CC1 [PCM-0102584, NC(=O)C1CCN(C(=O)CCl)CC1]	0%	0%	-15.701	-15.701
O=C(CCl)Nc1cc2c(cc1Cl)OCCO2 [PCM-0102585, O=C(CCl)Nc1cc2c(cc1Cl)OCCO2]	12%	0%	-16.394	-16.394

SMILES	NUDT7 % labeling (NUDT7)	OTUB2 % labeling (OTUB2)	ln(avg k) [1, 2]	ln(avg k) [1, 3]
Cc1n[nH]c(C)c1NC(=O)CCl [PCM-0102588, Cc1n[nH]c(C)c1NC(=O)CCl]	0%	0%	-16.991	-16.991
COC(=O)c1ccccc1N(C)C(=O)CCl [PCM-0102589, COC(=O)c1ccccc1N(C)C(=O)CCl]	15%	0%	-16.323	-16.323
O=C(CCl)Nc1cc(C(=O)O)ccc1Cl [PCM-0102590, O=C(CCl)Nc1cc(C(=O)O)ccc1Cl]	0%	0%	-17.114	-17.114
CN(Cc1ccccc1Br)C(=O)CCl [PCM-0102592, CN(Cc1ccccc1Br)C(=O)CCl]	14%	12%	-16.295	-16.295
CCN(C(=O)CCl)C1CC1 [PCM-0102594, CCN(C(=O)CCl)C1CC1]	0%	0%	-17.070	-17.070
O=C(CCl)NCC1CCOC1 (stereo not shown) [PCM-0102596, O=C(CCl)NCC1CCOC1]	0%	13%	-16.248	-16.248
CC(NC(=O)CCl)C(=O)N1CCCCC1 (stereo not shown) [PCM-0102598, CC(NC(=O)CCl)C(=O)N1CCCCC1]	0%	0%	-16.794	-16.794
O=C(CCl)Nc1ccc(N2CCCCC2)cc1 [PCM-0102612, O=C(CCl)Nc1ccc(N2CCCCC2)cc1]	0%	37%	-16.206	-16.206
O=C(CCl)NC(=O)Nc1ccc2c(c1)OCCO2 [PCM-0102614, O=C(CCl)NC(=O)Nc1ccc2c(c1)OCCO2]	23%	27%	-16.380	-16.380
O=C(CCl)N1CCOC(c2ccc(F)cc2)C1 (stereo not shown) [PCM-0102615, O=C(CCl)N1CCOC(c2ccc(F)cc2)C1]	0%	0%	-15.513	-15.513
CC1CCCC(C)N1C(=O)CCl (stereo not shown) [PCM-0102616, CC1CCCC(C)N1C(=O)CCl]	0%	0%	-15.945	-15.945
CCc1cccc(C)c1NC(=O)CCl [PCM-0102618, CCc1cccc(C)c1NC(=O)CCl]	11%	0%	-17.017	-17.017
O=C(CCl)NC1CCN(C(=O)c2ccco2)CC1 [PCM-0102619, O=C(CCl)NC1CCN(C(=O)c2ccco2)CC1]	0%	10%	-16.352	-16.352
CC(C)(C)c1ccc(NC(=O)CCl)cc1 [PCM-0102622, CC(C)(C)c1ccc(NC(=O)CCl)cc1]	0%	32%	-15.995	-15.995
Cc1ccc(NC(=O)NC(=O)CCl)cc1 [PCM-0102623, Cc1ccc(NC(=O)NC(=O)CCl)cc1]	11%	0%	-16.273	-16.273
Cc1ccc(C(=O)O)cc1NC(=O)CCl [PCM-0102624, Cc1ccc(C(=O)O)cc1NC(=O)CCl]	0%	0%	-17.065	-17.065
O=C(CCl)N1CCCc2cc(S(=O)(=O)N3CCCC3)ccc21 [PCM-0102625, O=C(CCl)N1CCCc2cc(S(=O)(=O)N3CCCC3)ccc21]	0%	0%	-15.992	-15.992
CC(C)C(C)(C#N)NC(=O)CCl (stereo not shown) [PCM-0102626, CC(C)C(C)(C#N)NC(=O)CCl]	0%	0%	-15.951	-15.951
Cc1ccc(S(=O)(=O)N2CCN(C(=O)CCl)CC2)c(C)c1 [PCM-0102628, Cc1ccc(S(=O)(=O)N2CCN(C(=O)CCl)CC2)c(C)c1]	0%	0%	-15.546	-15.546
Cc1nc(CN2CCN(C(=O)CCl)CC2)cs1 [PCM-0102630, Cc1nc(CN2CCN(C(=O)CCl)CC2)cs1]	0%	0%	-15.690	-15.690
CN(Cc1cccs1)C(=O)CCl [PCM-0102636, CN(Cc1cccs1)C(=O)CCl]	17%	0%	-15.483	-15.483
